# ± gives the standard deviation of the averaged measurements.
# Test system: SK-N-MM (SKNMM-MYCN, doxycycline-inducible MYCN)
# Experiment: area under dose-response curve (CellTiter-Glo viability normalised to plate controls) (AUC (arbitrary units)); higher = more loss of viability; extreme values may be limits of the assay
# In short: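 For each compound, area under the dose-response curve was calculated from log2 CellTiter-Glo luminescence normalised to the positive and negative controls on each plate. The cells were SK-N-MM with doxycycline-inducible MYCN, plated at 1250 cells/100 μL in 96-well plates and moved to medium with or without doxycycline about 24 h later. Two days after that, 10-point 1:3 dilution series were pin-transferred (890-fold stock dilution), with re-dosing on day 4 and readout 3 or 8 days after drugging.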
# [1] = MYCN induction (doxycycline): +doxycycline (MYCN induced), time after drugging: 3 days
# [2] = MYCN induction (doxycycline): +doxycycline (MYCN induced), time after drugging: 8 days
# [3] = MYCN induction (doxycycline): no doxycycline (MYCN not induced), time after drugging: 3 days
# [4] = MYCN induction (doxycycline): no doxycycline (MYCN not induced), time after drugging: 8 days
SMILES,area under dose-response curve [1],area under dose-response curve [2],area under dose-response curve [3],area under dose-response curve [4]
CC(=O)c1c(C)c2cnc(Nc3ccc(N4CCNCC4)cn3)nc2n(C2CCCC2)c1=O [PALBOCICLIB],0,78.6,0,65.5
Cc1cnc(CNC(=O)c2c(=O)c3ccc(N4CCCN(C)CC4)nc3n3c2sc2ccccc23)cn1 [CX-5461],,11.3,11.7,
Cc1cccc(-c2nn3c(c2-c2ccnc4ccc(C(N)=O)cc24)CCC3)n1,0,0,0,0
CNC(=O)c1ccc(N2C(=S)N(c3ccc(C#N)c(C(F)(F)F)c3)C(=O)C2(C)C)cc1F [ENZALUTAMIDE],0,0,0,0
Cn1cc(-c2cnn3c(N)c(Br)c([C@@H]4CCCNC4)nc23)cn1,67.2,122,31.4,74.9
Nc1nc2[nH]cc(CCc3ccc(C(=O)N[C@@H](CCC(=O)O)C(=O)O)cc3)c2c(=O)[nH]1 [PEMETREXED],6.04,112,0,58.3
Cn1nnc2c(C(N)=O)ncn2c1=O [TEMOZOLOMIDE],0,0,0,
CC(=O)O[C@H]1CC[C@@]2(C)C(=CC[C@@H]3[C@@H]2CC[C@]2(C)C(c4cccnc4)=CC[C@@H]32)C1 [ABIRATERONE ACETATE],8.14,0,6.74,0.368
Cc1cc(Nc2cc(N3CCN(C)CC3)nc(/C=C/c3ccccc3)n2)n[nH]1 [ENMD-2076],86,133,0.719,111
O=C(NC1CCNCC1)c1n[nH]cc1NC(=O)c1c(Cl)cccc1Cl [AT-7519],48.9,113,,65.7
O=C(CCCCCCC(=O)Nc1ccccc1)NO [VORINOSTAT],78.4,191,58.2,145
CCOC(=O)c1ccc(C#Cc2ccc3c(c2)C(C)(C)CCS3)nc1 [TAZAROTENE],3.59,9.49,,0.284
Cc1c2oc3c(C)ccc(C(=O)N[C@@H]4C(=O)N[C@H](C(C)C)C(=O)N5CCC[C@H]5C(=O)N(C)CC(=O)N(C)[C@@H](C(C)C)C(=O)O[C@@H]4C)c3nc-2c(C(=O)N[C@@H]2C(=O)N[C@H](C(C)C)C(=O)N3CCC[C@H]3C(=O)N(C)CC(=O)N(C)[C@@H](C(C)C)C(=O)O[C@@H]2C)c(N)c1=O [DACTINOMYCIN],140,282,91.4,210
Nc1nc(=O)n([C@H]2C[C@H](O)[C@@H](CO)O2)cc1F [5-FLUORODEOXYCYTIDINE],23.7,184,9.38,58.5
C=C(c1ccc(C(=O)O)cc1)c1cc2c(cc1C)C(C)(C)CCC2(C)C [BEXAROTENE],4.22 ± 5.2,,11.9,0
Cc1[nH]c2ccccc2c1CCNCc1ccc(/C=C/C(=O)NO)cc1 [PANOBINOSTAT],171 ± 12,306 ± 5.3,114 ± 27,287 ± 4.4
CC1=C(CC(=O)O)c2cc(F)ccc2/C1=C\c1ccc([S+](C)[O-])cc1 (stereo unspecified) [SULINDAC],,0,0,0
N#CCNC(=O)c1ccc(-c2ccnc(Nc3ccc(N4CCOCC4)cc3)n2)cc1,40.7,79.9,0,42
O=c1[nH]cc(F)c(=O)[nH]1 [5-FLUOROURACIL],12.1,24.8,6.6,25
CC[C@@H]1C(=O)N(C)c2cnc(Nc3ccc(C(=O)N[C@H]4CC[C@H](N5CCN(CC6CC6)CC5)CC4)cc3OC)nc2N1C(C)C [VOLASERTIB],87.9,138,,75.2
O=c1cc(-c2cccc3c2Sc2ccccc2S3)oc(N2CCOCC2)c1,,,16.3,

SMILES,area under dose-response curve [1],area under dose-response curve [2],area under dose-response curve [3],area under dose-response curve [4]
OCCN1CCN(CCCN2c3ccccc3Sc3ccc(C(F)(F)F)cc32)CC1 [FLUFENAZINE],0,0,0,0
C[C@@H]1O[C@@H](O[C@H]2C[C@@H](O)[C@]3(CO)[C@H]4[C@H](O)C[C@]5(C)[C@@H](C6=CC(=O)OC6)CC[C@]5(O)[C@@H]4CC[C@]3(O)C2)[C@H](O)[C@H](O)[C@H]1O [OUABAIN],178,280,173,275
Cc1oncc1C(=O)Nc1ccc(C(F)(F)F)cc1 [LEFLUNOMIDE],0,5.53,0,16.7
Cc1c(CN2CCC(Nc3ncnc4sc(CC(F)(F)F)cc34)CC2)ccc2c1cc(C#N)n2Cc1cn[nH]c1 [MI-503],131,177,,169
C=C1[C@@H](O)[C@@H]2O[C@]3(CC[C@H](/C=C/[C@@H](C)[C@@H]4CC(C)=C[C@@]5(O[C@H](C[C@@](C)(O)C(=O)O)CC[C@H]5O)O4)O3)CC[C@H]2O[C@@H]1[C@@H](O)C[C@H](C)[C@H]1O[C@@]2(CCCCO2)CC[C@H]1C [OKADAIC ACID],204,277,167,266
COc1cc(CCc2cc(NC(=O)c3ccc(N4CC(C)NC(C)C4)cc3)n[nH]2)cc(OC)c1 (stereo unspecified) [AZD4547],2.86,3.53,2.67,3.59
COc1cc2ncnc(Nc3ccc(F)c(Cl)c3)c2cc1OCCCN1CCOCC1 [GEFITINIB],80.1,0,93.7,93.8
CCOC(=O)CCNc1cc(N2CCc3ccccc3CC2)nc(-c2ccccn2)n1 [GSK-J4],0.00103,188,61.4,150
CC1(C)CCC(CN2CCN(c3ccc(C(=O)NS(=O)(=O)c4ccc(NCC5CCOCC5)c([N+](=O)[O-])c4)c(Oc4cnc5[nH]ccc5c4)c3)CC2)=C(c2ccc(Cl)cc2)C1 [VENETOCLAX],,2.61 ± 3.7,0,0
C=CCn1c(=O)c2cnc(Nc3ccc(N4CCN(C)CC4)cc3)nc2n1-c1cccc(C(C)(C)O)n1 [MK-1775],105 ± 20,159 ± 26,42.5 ± 14,98.1 ± 4.8
C#Cc1cccc(Nc2ncnc3cc(OCCOC)c(OCCOC)cc23)c1 [ERLOTINIB],,1.15,18.8,
O=C(O)CCCc1ccc(N(CCCl)CCCl)cc1 [CHLORAMBUCIL],0.922,0,0.476,2.34
CCN(CC)CCCC(C)Nc1c2ccc(Cl)cc2nc2ccc(OC)cc12 (stereo unspecified) [QUINACRINE],2.07,146,0,149
Cc1c(-c2c(-c3ccc(F)o3)sc3ncnc(O[C@H](Cc4ccccc4OCc4ccnn4CC(F)(F)F)C(=O)O)c23)ccc(OCCN2CCN(C)CC2)c1Cl,,7.67,,
CC[C@H](Nc1nc(NCc2cnc(C)cc2C)c2ncn(C(C)C)c2n1)[C@@H](C)O [CYC-065],66.2,165,45.7,160
O=C(CCCCCCNC(=O)c1cnc(N(c2ccccc2)c2ccccc2)nc1)NO [ROCILINOSTAT],43.9,94.7,20.4,76.4
CC(C)n1c(/C=C/C(O)CC(O)CC(=O)O)c(-c2ccc(F)cc2)c2ccccc21 (stereo unspecified) [FLUVASTATIN],2.15,11,0,4.98
CC1(C)CCC(C)(C)c2cc(NC(=O)c3ccc(C(=O)O)cc3)ccc21 [TAMIBAROTENE],1.1,3.09,0,0
Clc1ccc(C(c2ccccc2Cl)C(Cl)Cl)cc1 (stereo unspecified) [MITOTANE],0,0,0,0
CON(C)C(=O)N1N=C(c2cc(F)ccc2F)S[C@@]1(CCCN)c1ccccc1 [ARRY-520],218,288,108,154
